Tests used:
[1] = molecular target: T1, WT human PAH (Homo sapiens, UniProt P00439); test: PAH enzymatic activity assay (selectivity); type: biochemical; settings: up to a concentration of 100 µM
T1 construct: made in house
T1 sequence (P00439 1-452): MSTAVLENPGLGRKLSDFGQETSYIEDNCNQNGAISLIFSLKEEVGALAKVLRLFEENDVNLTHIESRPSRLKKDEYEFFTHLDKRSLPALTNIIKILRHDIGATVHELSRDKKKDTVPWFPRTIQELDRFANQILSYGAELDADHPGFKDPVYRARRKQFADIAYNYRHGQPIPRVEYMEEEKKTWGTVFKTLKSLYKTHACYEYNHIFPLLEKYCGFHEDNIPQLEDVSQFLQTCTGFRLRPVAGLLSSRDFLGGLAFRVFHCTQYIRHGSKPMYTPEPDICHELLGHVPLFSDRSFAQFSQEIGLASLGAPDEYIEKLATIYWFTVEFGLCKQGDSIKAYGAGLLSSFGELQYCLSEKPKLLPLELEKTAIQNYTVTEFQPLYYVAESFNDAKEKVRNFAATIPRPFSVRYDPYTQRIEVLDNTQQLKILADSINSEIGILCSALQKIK
Method: Full-length WT TPH1 and TPH2 were expressed as N-terminal six-His-maltose-binding protein fusion proteins in pETM-41 and were cleaved and purified as described previously ([McKinney et al., 2004]; [Winge et al., 2007]). Human WT PAH and TH were expressed and isolated as described previously ([Flydal et al., 2012]; [Bezem et al., 2016]).
Purified WT human TPH2, PAH, and TH were used for this purpose, and the activity assays for each enzyme was performed as described previously ([Haavik and Flatmark, 1980]; [Winge et al., 2007]; [Aubi et al., 2015]; [Bezem et al., 2016]).

[2] = design: method as in Wu and Delamere, 1997; settings: dissociation of the protonated pyridine nitrogen; ref Wu and Delamere, 1997; cited from earlier work
[3] = system: 5-HT content in brain and serum; test: LC-MS/MS determination of 5-HT levels in brain and serum; type: in vivo, mouse; settings: 100 mg/kg i.p. once daily for 4 days
Excerpt: Male CD-1 mice (Janvier Labs, Le Genest-St-Isle, France), 3 months of age were used. The animals in the different treatment groups were matched for age. The University of Barcelona’s Committee on Animal Use and Care approved the protocol. Animals were housed and tested in compliance with the guidelines described in the Guide for the Care and Use of Laboratory Animals ([Clark et al., 1997]) and following the European Union directives (2010/63/EU), FELASA and ARRIVE guidelines. All efforts were made to minimize animal suffering and the number of animals used. All animals were housed in groups of five in standard cages with ad libitum access to food and water and maintained under a 12-h dark/light cycle (starting at 7:30 AM), 22°C temperature, and 66% humidity. […]
Quantitative analysis of 5-HT was carried out by liquid chromatography coupled with tandem mass spectrometry (LC-MS/MS) using an Agilent 1,290 Infinity UHPLC chromatograph (Santa Clara, CA) coupled to a 6500 QTRAP mass spectrometer (ABSciex, Framingham, MA) equipped with an Ion Drive Turbo V ion source operating in positive ion mode. […] Sample-to-sample differences in recovery, liquid handling, and ionization efficiency were compensated for by normalizing to the amount of 5-HT-d4 detected in the samples. […]

COc1ccc2[nH]c([S+]([O-])Cc3ncc(C)c(OC)c3C)nc2c1 (stereo not shown) [Omeprazole]
inhibition of PAH [1]: no inhibition | pKa [2]: 7.1 | 5-HT content in serum vs vehicle ([3]; serum): significantly higher 5-HT content | 5-HT content in brain vs vehicle ([3]; whole-brain tissue): significantly higher 5-HT content
